Here are results for 2 compounds from patent US6683183B2, “Pyridotriazines and pyridopyridazines” (Warner-Lambert Company, priority 2000, dated 2004).

Data set [1] addresses T1, c-Src (Homo sapiens, UniProt P12931).
T1 construct: purchased Upstate Biotechnology, Lake Placid, N.Y
Put plainly: c-Src kinase inhibition (DELFIA). The format is biochemical. Conditions: c-Src at 3 units per reaction. As for the experimental part: c-Src kinase is purified from baculovirus infected insect cell lysates using an antipeptide monoclonal antibody directed against the N-terminal amino acids (amino acids 2-17) of c-Src. The antibody, covalently linked to 0.65 μm latex beads, is added to a suspension of insect cell lysis buffer comprised of 150 mM NaCl, 50 mM Tris pH 7.5, 1 mM DTT, 1% NP-40, 2 mM EGTA, 1 mM sodium vanadate, 1 mM PMSF, 1 μg/mL each of leupeptin, pepstatin, and aprotinin. Insect cell lysate containing c-Src protein is incubated with these beads for 3 to 4 hours at 4° C. with rotation. […] The filters are then punched, counted in a liquid scintillation counter, and the data examined for inhibitory activity in comparison to a known inhibitor such as erbstatin. […]
(§1) The inhibition activity of the compounds in Examples 7 and 8 were also evaluated using the Dissociated Enhanced Lanthanide Fluoroimmuno Assay (DELFIA) (Frank Loganzo and Carolyn Harady. A sensitive, time-resolved fluorometric assay for the detection of inhibitors of phosphotyrosine kinases. American Biotechnology Laboratory, December 1998). […] One hundred microliter DELFIA Enhancement Solution (EG&G Wallac) was added and time-resolved fluorescence of the reactions determined using a VICTOR2 1420 multilable counter (EG&G Wallac). […]

Data set [2] deals with T2, PDGF (Mus musculus, UniProt P05622).
T2 construct: The kinase domains from FGFR-1, VEGFR-2, Lck, and PDGF were purified from baculoviral vectors expression systems; made in house; host or cells: baculovirus expression system (insect cells)
Put plainly: PDGF receptor tyrosine kinase inhibition (DELFIA). The data set is classed as biochemical. Conditions: kinase domain at 20 nM.
From the text: (§2) Full-length cDNAs for the mouse PDGF-β and human FGF-1 (flg) receptor tyrosine kinases were obtained from J. Escobedo and prepared as described in J. Biol. Chem., 1991;262:1482-1487. PCR primers were designed to amplify a fragment of DNA that codes for the intracellular tyrosine kinase domain. The fragment was inserted into a baculovirus vector, cotransfected with AcMNPV DNA, and the recombinant virus isolated. SF9 insect cells were infected with the virus to overexpress the protein, and the cell lysate was used for the assay. […] Filters were washed three times with 15% TCA containing 100 mM sodium pyrophosphate, and the radioactivity retained on the filters counted in a Wallac 1250 Betaplate reader. Nonspecific activity was defined as radioactivity retained on the filters following incubation of samples with buffer alone (no enzyme). […]
as §1

Data set [3] has as its target T3, FGFR-1 (Homo sapiens, UniProt P11362).
T3 construct: The kinase domains from FGFR-1, VEGFR-2, Lck, and PDGF were purified from baculoviral vectors expression systems; made in house; host or cells: baculovirus expression system (insect cells)
Put plainly: FGFR tyrosine kinase inhibition (DELFIA). The format is biochemical. Particulars: kinase domain at 20 nM.
From the text: as §2, §1

The target of data set [4] is T4, Lck (Homo sapiens, UniProt P06239).
T4 construct: The kinase domains from FGFR-1, VEGFR-2, Lck, and PDGF were purified from baculoviral vectors expression systems; made in house; host or cells: baculovirus expression system (insect cells)
Put plainly: Lck kinase inhibition (DELFIA). The format is biochemical. Conditions: kinase domain at 20 nM. How it is done:
(§3) The inhibition activity of the compounds in Examples 7 and 8 were also evaluated using the Dissociated Enhanced Lanthanide Fluoroimmuno Assay (DELFIA) (Frank Loganzo and Carolyn Harady. A sensitive, time-resolved fluorometric assay for the detection of inhibitors of phosphotyrosine kinases. American Biotechnology Laboratory, December 1998). DELFIA plates (EG&G Wallac, Gaithersburg, Md.) were coated overnight with Poly Glu Tyr (4:1) (Sigma, St. Louis, Mo.) overnight at room temperature, washed (DELFIA wash reagent, EG&G Wallac), and spotted with 1 μL inhibitor dilution or DMSO carrier control per well. In some cases, kinase was autophosphorylated prior to analysis by incubating 45 minutes at 4° C. in the presence of 4 mM ATP and 25 mM MgCl2. A typical 100 μL kinase assay reaction contained 20 mM Tris (pH 7.5), 20 mM MgCl2, 50 mM NaCl, 5 mM DTT, 200 μM ATP, and protease inhibitors (Mini EDTA-free protease inhibitor cocktail tablets, Boehringer Mannheim, Indianapolis, Ind.), 40 μM ATP, and an appropriate concentration of inhibitor. The reaction was allowed to continue for 30 minutes at room temperature. […] One hundred microliter DELFIA Enhancement Solution (EG&G Wallac) was added and time-resolved fluorescence of the reactions determined using a VICTOR2 1420 multilable counter (EG&G Wallac). […]

The target in data set [5] is T5, VEGFR-2 (Homo sapiens, UniProt P35968).
T5 construct: The kinase domains from FGFR-1, VEGFR-2, Lck, and PDGF were purified from baculoviral vectors expression systems; made in house; host or cells: baculovirus expression system (insect cells)
Put plainly: VEGFR-2 tyrosine kinase inhibition (DELFIA). Particulars: kinase domain at 20 nM; read-out: (VEGF-2) (IC50 = μM). The format is biochemical. How it is done: as §3

The structures appear in SMILES notation. Some results are limits rather than exact numbers.

T1 sequence (P12931 whole entry, species assumed): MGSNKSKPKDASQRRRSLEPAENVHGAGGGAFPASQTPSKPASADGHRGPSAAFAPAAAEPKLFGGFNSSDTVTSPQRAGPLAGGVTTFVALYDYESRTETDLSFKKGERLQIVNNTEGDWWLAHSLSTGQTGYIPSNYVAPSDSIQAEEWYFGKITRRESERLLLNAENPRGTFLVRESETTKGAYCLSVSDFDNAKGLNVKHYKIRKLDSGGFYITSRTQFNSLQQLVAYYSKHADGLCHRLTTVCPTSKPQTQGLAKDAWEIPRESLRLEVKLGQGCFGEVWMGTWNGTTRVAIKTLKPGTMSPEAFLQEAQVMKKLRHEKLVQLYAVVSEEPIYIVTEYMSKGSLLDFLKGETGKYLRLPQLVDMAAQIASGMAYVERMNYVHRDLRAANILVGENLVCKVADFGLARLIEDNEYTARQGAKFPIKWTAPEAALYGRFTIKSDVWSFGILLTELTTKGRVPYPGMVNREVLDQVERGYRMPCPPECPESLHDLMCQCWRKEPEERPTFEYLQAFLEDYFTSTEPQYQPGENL
T2 sequence (P05622 599-961 limits assumed): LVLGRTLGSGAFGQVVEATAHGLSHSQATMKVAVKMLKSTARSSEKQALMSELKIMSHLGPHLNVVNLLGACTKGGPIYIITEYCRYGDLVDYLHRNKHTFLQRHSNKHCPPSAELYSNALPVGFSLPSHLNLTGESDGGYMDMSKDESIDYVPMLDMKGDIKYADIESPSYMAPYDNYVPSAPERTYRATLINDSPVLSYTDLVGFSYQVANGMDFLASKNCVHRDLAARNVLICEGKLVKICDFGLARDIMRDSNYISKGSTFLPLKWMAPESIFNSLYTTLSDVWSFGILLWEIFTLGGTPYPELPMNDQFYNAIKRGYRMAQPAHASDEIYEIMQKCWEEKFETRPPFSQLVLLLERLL
T3 sequence (P11362 478-767 limits assumed): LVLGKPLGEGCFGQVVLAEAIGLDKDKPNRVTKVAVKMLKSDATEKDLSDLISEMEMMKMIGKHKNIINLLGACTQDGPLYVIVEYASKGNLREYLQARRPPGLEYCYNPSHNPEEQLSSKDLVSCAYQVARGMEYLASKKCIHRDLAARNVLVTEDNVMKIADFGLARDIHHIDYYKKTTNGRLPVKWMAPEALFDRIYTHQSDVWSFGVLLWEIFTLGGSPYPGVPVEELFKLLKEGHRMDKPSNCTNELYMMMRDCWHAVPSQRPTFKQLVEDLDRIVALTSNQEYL
T4 sequence (P06239 245-498 limits assumed, species assumed): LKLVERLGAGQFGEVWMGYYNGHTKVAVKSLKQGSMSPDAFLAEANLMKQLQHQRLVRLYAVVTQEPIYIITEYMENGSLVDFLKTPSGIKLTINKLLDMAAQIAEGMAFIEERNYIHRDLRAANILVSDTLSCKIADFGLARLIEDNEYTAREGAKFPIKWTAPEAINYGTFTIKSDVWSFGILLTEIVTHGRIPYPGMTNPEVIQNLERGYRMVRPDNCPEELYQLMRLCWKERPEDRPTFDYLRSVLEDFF
T5 sequence (P35968 834-1162 limits assumed, species assumed): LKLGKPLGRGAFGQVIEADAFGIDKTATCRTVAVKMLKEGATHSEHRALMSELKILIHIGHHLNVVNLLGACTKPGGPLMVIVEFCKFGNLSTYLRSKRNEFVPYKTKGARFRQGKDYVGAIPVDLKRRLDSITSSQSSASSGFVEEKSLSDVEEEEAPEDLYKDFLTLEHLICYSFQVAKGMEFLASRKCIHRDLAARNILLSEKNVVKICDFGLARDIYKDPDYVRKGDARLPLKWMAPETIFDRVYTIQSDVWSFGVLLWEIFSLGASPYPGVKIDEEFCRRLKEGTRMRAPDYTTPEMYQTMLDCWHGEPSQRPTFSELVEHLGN

Consider `CCN(CC)CCCCNc1nnc2cc(-c3cc(OC)cc(OC)c3)c(=O)n(CC)c2n1` [Example 7, 3-(4-Diethylamino-butylamino)-7-(3,5-dimethoxy-phenyl)-5-ethyl-5H-pyrido[2,3-e]-1,2,4-triazin-6-one], for which the melting point is 120 to 121 °C (dec.). Besides, half-maximal inhibition in data set [1] (IC50) was put at 10.6 µM. Besides, the IC50 in data set [2] is greater than 50 µM. The compound further had a 50% inhibitory concentration (IC50) in data set [3] of 6.04 µM.
Consider `CCn1c(=O)c(-c2cc(OC)cc(OC)c2)cc2nnc(Nc3ccncc3)nc21` [Example 8, 7-(3,5-Dimethoxy-phenyl)-5-ethyl-3-(pyridin-4-ylamino)-5H-pyrido[2,3-e]-1,2,4-triazin-6-one], for which the Ki in data set [4] is greater than 4 µM. The IC50 in data set [1] is greater than 4 µM; in data set [2], greater than 50 µM; in data set [5], 0.35 µM; in data set [3], 1.22 µM.
